Data published in ChEMBL document CHEMBL6153141, “Design, Synthesis, and Mechanism Study of Novel BMX Inhibitors Based on the Core of 1,3,5-Triazin-2-Amine for the Treatment of Gastric Carcinoma” (J Med Chem, 2025).

Columns and labels:
[1] = test system: HGC-27; assay: Downregulation of BMX protein expression in human HGC-27 cells incubated for 48 hrs by Western blot analysis; assay type: functional, cell-based; details: dose 5-15 µM
[2] = Cytotoxicity against H9c2 cells assessed as inhibition of cell proliferation incubated for 72 hrs by MTT assay; assay type: toxicity, cell-based; details: rat
[3] = Toxicity in female BALB/c nude mouse model xenografted with human HGC-27 cells assessed as effect on spleen at 30 mg/kg, ip administered for 21 days by H and E staining based analysis; assay type: organism-based; details: in vivo, 504 h, time 21 day
[4] = test system: MGC-803; assay: Induction of autophagy in human MGC-803 cells assessed as decrease in p62 protein expression incubated for 48 hrs by Western blot analysis; assay type: functional, cell-based; details: dose 10-20 µM
[5] = Tmax in Sprague-Dawley rat at 5 mg/kg, po or 5 mg/kg, iv measured after 24 hrs by LC-MS/MS analysis; assay type: ADME, organism-based; details: in vivo
[6] = molecular target: Cytochrome P450 3A4 (Homo sapiens, UniProt P08684); assay: Inhibition of CYP3A4 in human liver microsomes using testosterone as substrate preincubated for 5 mins followed by NADPH addition and measured after 10 mins by LC-MS/MS analysis; assay type: ADME, Microsome
Sequence of Cytochrome P450 3A4 (P08684 whole entry): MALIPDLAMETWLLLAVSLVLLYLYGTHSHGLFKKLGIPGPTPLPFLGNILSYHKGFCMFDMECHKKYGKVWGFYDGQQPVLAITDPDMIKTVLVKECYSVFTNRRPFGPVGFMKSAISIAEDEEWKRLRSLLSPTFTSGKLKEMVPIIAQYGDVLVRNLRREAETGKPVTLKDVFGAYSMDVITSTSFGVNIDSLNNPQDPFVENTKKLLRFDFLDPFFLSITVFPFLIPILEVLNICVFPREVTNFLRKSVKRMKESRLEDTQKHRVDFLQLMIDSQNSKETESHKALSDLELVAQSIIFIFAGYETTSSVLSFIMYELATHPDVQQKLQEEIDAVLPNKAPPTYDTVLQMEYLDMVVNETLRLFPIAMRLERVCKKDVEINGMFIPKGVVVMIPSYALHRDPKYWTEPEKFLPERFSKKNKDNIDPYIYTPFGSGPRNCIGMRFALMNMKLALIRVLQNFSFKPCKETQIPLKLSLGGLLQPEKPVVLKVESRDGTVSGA

[7] = test system: HGC-27; assay: cells; details: Homo sapiens, HGC-27, 48 h
Description: Antiproliferative activity against human HGC-27 cells assessed as inhibition of cell viability incubated for 48 hrs by MTT assay

[8] = test system: 4T1; assay: Anticancer activity against mouse 4T1 cells assessed as inhibition of cell proliferation incubated for 72 hrs by MTT assay; assay type: functional, cell-based; details: 4T1, 72 h
[9] = test system: HONE1 cell line; assay: Anticancer activity against human HONE1 cell line assessed as inhibition of cell proliferation incubated for 72 hrs by MTT assay; assay type: functional, cell-based; details: HONE1, 72 h
[10] = molecular target: Tyrosine-protein kinase JAK3 (Homo sapiens, UniProt P52333); assay: Inhibition of JAK3 (unknown origin) in presence of ATP at Km concentration
Sequence of Tyrosine-protein kinase JAK3 (P52333 whole entry): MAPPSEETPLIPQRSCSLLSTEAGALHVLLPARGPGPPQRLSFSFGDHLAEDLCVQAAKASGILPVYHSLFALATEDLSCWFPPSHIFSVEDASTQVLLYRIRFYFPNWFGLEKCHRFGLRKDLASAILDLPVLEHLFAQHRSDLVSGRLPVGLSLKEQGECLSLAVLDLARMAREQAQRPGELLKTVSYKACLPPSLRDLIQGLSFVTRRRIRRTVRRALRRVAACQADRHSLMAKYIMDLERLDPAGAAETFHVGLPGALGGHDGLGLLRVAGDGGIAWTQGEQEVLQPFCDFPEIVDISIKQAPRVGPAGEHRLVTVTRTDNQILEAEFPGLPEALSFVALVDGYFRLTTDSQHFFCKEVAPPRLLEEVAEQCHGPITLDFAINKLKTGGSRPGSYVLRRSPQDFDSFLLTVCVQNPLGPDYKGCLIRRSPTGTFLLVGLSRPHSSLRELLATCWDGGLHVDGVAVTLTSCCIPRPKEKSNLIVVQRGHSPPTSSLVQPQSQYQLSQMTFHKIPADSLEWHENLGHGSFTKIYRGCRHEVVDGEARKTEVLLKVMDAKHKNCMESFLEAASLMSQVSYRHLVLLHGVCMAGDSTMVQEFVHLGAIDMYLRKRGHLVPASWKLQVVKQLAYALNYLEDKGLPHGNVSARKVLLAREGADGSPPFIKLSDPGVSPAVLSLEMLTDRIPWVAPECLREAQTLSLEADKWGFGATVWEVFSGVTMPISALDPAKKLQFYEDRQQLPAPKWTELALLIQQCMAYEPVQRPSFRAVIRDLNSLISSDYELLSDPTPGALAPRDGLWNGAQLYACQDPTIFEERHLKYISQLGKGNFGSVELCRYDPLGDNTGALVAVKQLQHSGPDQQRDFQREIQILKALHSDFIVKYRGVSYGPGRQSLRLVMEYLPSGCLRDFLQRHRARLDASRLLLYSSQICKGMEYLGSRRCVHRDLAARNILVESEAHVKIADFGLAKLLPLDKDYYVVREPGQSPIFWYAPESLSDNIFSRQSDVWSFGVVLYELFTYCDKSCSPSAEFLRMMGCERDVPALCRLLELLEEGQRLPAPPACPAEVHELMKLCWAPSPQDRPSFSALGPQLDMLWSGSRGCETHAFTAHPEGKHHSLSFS

C=CS(=O)(=O)N1CCC[C@@H](Nc2nc(N)nc(Nc3cccc(Oc4ccccc4)c3)n2)C1
Activity [1]: Dose-dependent-effect | IC50 at 72 h [2]: > 32 µM | Activity [3]: Non-toxic | Activity [4]: Dose-dependent-effect | Tmax [5]: 6 min | IC50 [6]: > 100 µM | IC50 [7]: 10.5 µM | IC50 [8]: 16.6 µM | IC50 [9]: 15.7 µM | IC50 [10]: 0.437 µM
